Test systems include OVCAR-5; NCI-H460; UO-31; M14; HOP-92; MOLT-4; IGROV-1; SR; K562; BT-549; SF-295; SF-268; UACC-257; LOX IMVI; A549; SK-MEL-5; SF-539; COLO 205; HL-60.
Holding throughout (assay): inhibition of tumour cell growth, NCI panel, 48 h

Each structure is given as a SMILES string.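 Test compounds were applied to cells in 96-well plates for 48 hours at 5 doses. GI50 is the concentration that inhibits growth by half.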 The source made the active and inactive calls. Rule as the data show it: active = GI50 up to about 1.1 µM and inactive = higher.

In the case of `CC(C)(C)C(=O)C(C(c1ccccc1)N1CCOCC1)N1CCOCC1` (stereo not given), the GI50 in the assay with OVCAR-5, in the assay with NCI-H460, in the assay with UO-31, in the assay with M14, in the assay with HOP-92 and in the assay with MOLT-4 was > 100 µM (inactive) throughout. Moreover, the GI50 in the assay with IGROV-1, with SR, in the assay with K562, with BT-549, with SF-295 and in the assay on SF-268 was > 100 µM (inactive) in each case. In addition, the GI50 in the assay on UACC-257, with LOX IMVI and in the assay with A549 was > 100 µM (inactive) each time.

Take `CC1(C)C2CC3C4CC5(Nc6ccccc6C5N41)[C@]3(C)CC2=O` (stereo not given in full): the GI50 with OVCAR-5, with NCI-H460, in the assay with SK-MEL-5, in the assay on UO-31, in the assay with SF-539 and in the assay on COLO 205 was > 50 µM (inactive) each time. For the same molecule, the GI50 with HOP-92 was 12.5 µM (inactive); in the assay with MOLT-4 it was > 50 µM (inactive); in the assay with IGROV-1 it was > 50 µM (inactive); with SR it was > 50 µM (inactive); in the assay with K562 it was > 50 µM (inactive); in the assay on BT-549 it was > 50 µM (inactive). Moreover, the GI50 with SF-295, in the assay on SF-268, in the assay on UACC-257, in the assay on LOX IMVI, in the assay with HL-60 and in the assay with A549 was > 50 µM (inactive) throughout.

With `N/C(=N\c1ccc(Cl)cc1)NS(=O)(=O)c1ccc(-c2ccccn2)s1`, the GI50 was 21.4 µM (inactive) in the assay with OVCAR-5; 17.7 µM (inactive) in the assay on NCI-H460; 15.8 µM (inactive) in the assay with SK-MEL-5; 17.7 µM (inactive) in the assay on UO-31; 14.9 µM (inactive) with SF-539; 17.8 µM (inactive) in the assay with M14. The GI50 was 17.4 µM (inactive) in the assay with COLO 205; 13 µM (inactive) with HOP-92; 2.41 µM (inactive) with MOLT-4; 16.1 µM (inactive) in the assay with IGROV-1; 14.5 µM (inactive) in the assay on SR; 15.4 µM (inactive) in the assay on K562. Moreover, the GI50 with BT-549 was 17.3 µM (inactive); with SF-295, 17.5 µM (inactive); in the assay on SF-268, 17.3 µM (inactive); in the assay on UACC-257 it was 7.91 µM (inactive); in the assay on LOX IMVI, 17.5 µM (inactive); with A549, 19.1 µM (inactive).

Regarding `c1ccc2c(c1)Nc1nc3nonc3nc1N2`, the GI50 in the assay with OVCAR-5, in the assay with NCI-H460, in the assay on SK-MEL-5, with UO-31, with M14 and with COLO 205 was > 100 µM (inactive) throughout. In addition, the GI50 with HOP-92, with MOLT-4, with IGROV-1, with SR, in the assay with K562 and in the assay with BT-549 was > 100 µM (inactive) throughout. For the same molecule, the GI50 in the assay on SF-295, in the assay on SF-268, in the assay on UACC-257, with LOX IMVI, with HL-60 and in the assay on A549 was > 100 µM (inactive) throughout.

As for `COc1cc(/C=C2\C(=O)N(c3cccc([N+](=O)[O-])c3)C(c3ccccc3)S2(=O)=O)cc(OC)c1OC` (stereo not given), the GI50 in the assay on OVCAR-5, with NCI-H460, with SK-MEL-5, in the assay on UO-31, with M14 and with COLO 205 was > 100 µM (inactive) each time. Also, the GI50 with HOP-92 was > 100 µM (inactive); in the assay with MOLT-4 it was 74 µM (inactive); in the assay with IGROV-1 it was > 100 µM (inactive); in the assay with SR, 37.2 µM (inactive); in the assay with K562 it was 49.4 µM (inactive); in the assay with BT-549, > 100 µM (inactive). Further, the GI50 with SF-295 was 97.5 µM (inactive); in the assay with UACC-257 it was > 100 µM (inactive); with LOX IMVI it was > 100 µM (inactive); with HL-60, 84.7 µM (inactive); with A549, > 100 µM (inactive).

Consider `CCOC1NC(/N=C/c2ccc(OC)cc2)=C(C#N)C1C#N` (stereo not given), for which the GI50 in the assay on OVCAR-5 is 87.5 µM (inactive); in the assay with NCI-H460 it was > 100 µM (inactive); in the assay on SK-MEL-5, 38.6 µM (inactive); in the assay on UO-31 it was > 100 µM (inactive); in the assay on SF-539 it was 93.8 µM (inactive); in the assay with M14, > 100 µM (inactive). The GI50 in the assay on COLO 205 is 75.3 µM (inactive); with MOLT-4 it was 92 µM (inactive); in the assay on IGROV-1, > 100 µM (inactive); in the assay with SR, 30 µM (inactive); with K562, 31 µM (inactive); with BT-549, 19.9 µM (inactive). For the same molecule, the GI50 was > 100 µM (inactive) in the assay on SF-295; 97.5 µM (inactive) in the assay with SF-268; 65.5 µM (inactive) in the assay on UACC-257; 44.6 µM (inactive) with LOX IMVI; 37.5 µM (inactive) with HL-60; > 100 µM (inactive) with A549.

As to `COc1ccc2c(c1)CCc1c-2[nH]c2ccc(OC)cc12`, the GI50 in the assay on OVCAR-5, in the assay with NCI-H460, in the assay with SK-MEL-5, with UO-31, in the assay on M14 and with COLO 205 was > 100 µM (inactive) each time. For the same molecule, the GI50 in the assay with HOP-92, in the assay with MOLT-4, in the assay on IGROV-1, in the assay on SR, in the assay with K562 and with BT-549 was > 100 µM (inactive) each time. Besides, the GI50 in the assay with SF-295, with SF-268, in the assay on UACC-257, in the assay with LOX IMVI and in the assay on A549 was > 100 µM (inactive) throughout.

Regarding `O=C(CNCc1ccccc1)Oc1c(Cl)c(Cl)c(Cl)c(Cl)c1Cl`, the GI50 in the assay with OVCAR-5 is 66.5 µM (inactive); in the assay with NCI-H460, 38.9 µM (inactive); with UO-31, 20.6 µM (inactive); in the assay on SF-539, 32.3 µM (inactive); in the assay with M14, 77.8 µM (inactive); in the assay on COLO 205, 25 µM (inactive). For the same molecule, the GI50 with MOLT-4 was 22.3 µM (inactive); with IGROV-1 it was 33.1 µM (inactive); in the assay on SR, 21.8 µM (inactive); in the assay on K562, 34.8 µM (inactive); with BT-549, 17.3 µM (inactive); in the assay on SF-295, 27.2 µM (inactive). Further, the GI50 with SF-268 was 37.5 µM (inactive); in the assay on UACC-257, 23.1 µM (inactive); in the assay with LOX IMVI, 29.6 µM (inactive); in the assay on HL-60, 23.8 µM (inactive); in the assay with A549, 30.4 µM (inactive).

As for `O=c1oc2ccc3ccccc3c2cc1-c1nnc(-c2ccc([N+](=O)[O-])cc2)[nH]1`, the GI50 in the assay on OVCAR-5 is > 100 µM (inactive); in the assay on NCI-H460 it was > 100 µM (inactive); in the assay on SK-MEL-5, > 100 µM (inactive); with UO-31, 53.1 µM (inactive); in the assay with SF-539 it was 18.7 µM (inactive); in the assay on M14 it was > 100 µM (inactive). In addition, the GI50 in the assay with COLO 205 is > 100 µM (inactive); in the assay on MOLT-4 it was 71.4 µM (inactive); in the assay on IGROV-1, 0.184 µM (active); with SR, > 100 µM (inactive); in the assay with K562 it was > 100 µM (inactive); with BT-549 it was 21.3 µM (inactive). In addition, the GI50 with SF-295 was 36.6 µM (inactive); in the assay on SF-268, 0.0807 µM (active); in the assay with UACC-257, > 100 µM (inactive); in the assay on LOX IMVI, 38.8 µM (inactive); with HL-60 it was > 100 µM (inactive); in the assay with A549 it was > 100 µM (inactive).

In the case of `CC1(C)OC2C(O)CN3CCS[C@H]3C2O1` (stereo not given in full), the GI50 in the assay on OVCAR-5, with NCI-H460, with SK-MEL-5, with UO-31, with M14 and in the assay with COLO 205 was > 100 µM (inactive) throughout. In addition, the GI50 in the assay with HOP-92, in the assay on MOLT-4, in the assay on IGROV-1, in the assay with SR, in the assay with K562 and in the assay on BT-549 was > 100 µM (inactive) each time. The GI50 in the assay on SF-295, in the assay with SF-268, in the assay with UACC-257, in the assay with LOX IMVI, in the assay on HL-60 and in the assay with A549 was > 100 µM (inactive) in each case.

In the case of `CCN(CC)C(=O)N[C@@H](CC(C)C)C(=O)NC`, the GI50 in the assay on OVCAR-5, with NCI-H460, in the assay with SK-MEL-5, in the assay on UO-31, with M14 and with COLO 205 was > 100 µM (inactive) in each case. The GI50 in the assay on MOLT-4, in the assay with IGROV-1, in the assay on SR, with K562, in the assay with BT-549 and in the assay on SF-295 was > 100 µM (inactive) each time. In addition, the GI50 in the assay on SF-268 was > 100 µM (inactive); in the assay on LOX IMVI, > 100 µM (inactive); with HL-60 it was 43.3 µM (inactive); in the assay with A549, > 100 µM (inactive).

The record behind these values is ChEMBL document CHEMBL1201862, “PubChem BioAssay data set” (2004).
